Earlier results in patent publication US20170083675A1, “Method for Selecting Patient Subpopulation for Custirsen Treatment” (OncoGenex Technologies Inc., priority 2015, published 2017).

System: metastatic castrate resistant prostate cancer (CRPC)
Conditions: second-line chemotherapy

For `CO[C@H]1C(=O)[C@]2(C)[C@@H](OC)C[C@H]3OC[C@@]3(OC(C)=O)[C@H]2[C@H](OC(=O)c2ccccc2)[C@]2(O)C[C@H](OC(=O)[C@H](O)[C@@H](NC(=O)OC(C)(C)C)c3ccccc3)C(C)=C1C2(C)C` [cabazitaxel], the “survival compared to mitoxantrone (in words)” value is listed as “survival advantage”.
